Measured values published in US20080306230A1, “Composition and Associated Method” (GENERAL ELECTRIC COMPANY, priority 2007, published 2008).

Test: Solubility of the product as observed
Format: physicochemical
Details: in words; water or methanol
Procedure: 5-norbornene-2-methanol (CAS 95-12-5, 1 gram) and sodium hydride (NaH, 60% dispersion in mineral oil, 0.6 grams) are dissolved in 50 milliliters of anhydrous THF. The mixture is refluxed overnight at 80 degrees C. After refluxing, 1,3-propane sultone (CAS 1120-71-4, 0.98 grams) in 20 milliliters of THF is added to the mixture in 10 minutes. After 5 hours, the solvent is removed by rotary evaporation and the reaction product is purified by column chromatography using silica and ethyl acetate/methanol (4:1) as eluent. […] The product yield is about 60 weight percent.
A ruthenium metal complex 1,3-bis(2,4,6-trimethylphenyl)-2-imidazolidinylidene)dichloro(phenylmethylene)(tricyclohexylphosphine)ruthenium (CAS No. 246047-72-3, 5 milligrams) is charged in a HPLC flask and the flask is degassed and purged with argon three times. Methylene chloride (CH2Cl2, 50 microliters) is injected into the flask using a syringe. The metal complex solution is cooled at −78 degrees Celsius in a dry ice and acetone bath. Norbornene sulfonate (10 milligrams, Sample 1 from Example 1) is charged into a second flask and degassed and the flask is backfilled with argon three times. Degassed methanol (500 microliters) is added to norbornene sulfonate using a syringe. The resulting mixture is also cooled at −78 degrees Celsius. […]

solubility: soluble in water or methanol
Compound: O=S(=O)([O-])C1CC2C=CC1C2.[Na+] (stereo not shown) [Sample 1, norbornene-sodium sulfonate]
